In patent publication US6479435B1, “Diaryl ethers and processes for their preparation and herbicidal and desiccant compositions containing them” (ISK Americas Incorporated, priority 1997, dated 2002):

How the values were obtained:
Format in all cases: in vivo
[1] = system: upland rice (Oryza sp., var.Tebonnet, RICE); experiment: Post-emerge greenhouse test, crop damage rating; settings: 14 days after application; for crop damage rating RICE: scale 0-100
Procedure, shortened: (§1)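 Compounds in acetone with 0.25% v/v non-ionic surfactant were track-sprayed at 187 l/ha over plants at the 2-3 leaf stage, at 63 to 1000 g ai/ha. Pots were bottom-watered. Injury was scored visually 14 days later on a 0-100 scale, where 0 is no damage and 100 is complete plant death.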

[2] = system: field corn (Zea mays L., var. Dekalb 535, CORN); experiment: Post-emerge greenhouse test, crop damage rating; settings: 14 days after application; for crop damage rating CORN: scale 0-100
Procedure, shortened: as §1

[3] = system: upland rice (Oryza sp., var.Tebonnet, RICE); experiment: Pre-emerge greenhouse test, crop damage rating; settings: 14 days after application, rating scale 0-100
Procedure, shortened: (§2)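 Seeds sown in sandy loam mix one day before track-sprayer application of compounds in acetone at 125–1000 g ai/ha (187 l/ha), then surface-watered to incorporate and bottom-watered. Visual rating 14 days after application on a 0–100 scale (0 = no damage, 100 = all plants dead).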

[4] = system: field corn (Zea mays L., var. Dekalb 535, CORN); experiment: Pre-emerge greenhouse test, crop damage rating; settings: 14 days after application, rating scale 0-100
Procedure, shortened: as §2

[5] = system: lambsquarters (Chenopodium album, CHEAL); experiment: Pre-emerge greenhouse herbicide test, phytotoxicity rating; settings: 14 days after application, rating scale 0-100
Procedure, shortened: as §2

[6] = system: common ragweed (Ambrosia artemisiifolia L., AMBEL); experiment: as above; settings: 14 days after application, rating scale 0-100
Procedure, shortened: as §2

[7] = system: barnyardgrass (Echinochloa crusgalli, ECHCG); experiment: as above; settings: 14 days after application, rating scale 0-100
Procedure, shortened: as §2

[8] = system: sicklepod (Cassia obtusifolia, CASOB); experiment: as above; settings: 14 days after application, rating scale 0-100
Procedure, shortened: as §2

[9] = system: green foxtail (Setaria viridis, SETVI); experiment: as above; settings: 14 days after application, rating scale 0-100
Procedure, shortened: as §2

[10] = system: large crabgrass (Digitaria sanguinalis, DIGSA); experiment: as above; settings: 14 days after application, rating scale 0-100
Procedure, shortened: as §2

[11] = system: redroot pigweed (Amaranthus retroflexus, AMARE); experiment: as above; settings: 14 days after application, rating scale 0-100
Procedure, shortened: as §2

[12] = system: ivyleaf morningglory (Ipomoea hederacea, IPOHE); experiment: as above; settings: 14 days after application, rating scale 0-100
Procedure, shortened: as §2

[13] = system: velvetleaf (Abutilon theophrasti, ABUTH); experiment: as above; settings: 14 days after application, rating scale 0-100
Procedure, shortened: as §2

[14] = system: Johnsongrass (Sorghum halepense, SORHA); experiment: as above; settings: 14 days after application, rating scale 0-100
Procedure, shortened: as §2

[15] = system: lambsquarters (Chenopodium album, CHEAL); experiment: Post-emerge greenhouse herbicide test, phytotoxicity rating; settings: 14 days after application; for phytotoxicity rating CHEAL: scale 0-100
Procedure, shortened: as §1

[16] = system: barnyardgrass (Echinochloa crusgalli, ECHCG); experiment: as above; settings: 14 days after application; for phytotoxicity rating ECHCG: scale 0-100
Procedure, shortened: as §1

[17] = system: sicklepod (Cassia obtusifolia, CASOB); experiment: as above; settings: 14 days after application; for phytotoxicity rating CASOB: scale 0-100
Procedure, shortened: as §1

[18] = system: green foxtail (Setaria viridis, SETVI); experiment: as above; settings: 14 days after application; for phytotoxicity rating SETVI: scale 0-100
Procedure, shortened: as §1

[19] = system: large crabgrass (Digitaria sanguinalis, DIGSA); experiment: as above; settings: 14 days after application; for phytotoxicity rating DIGSA: scale 0-100
Procedure, shortened: as §1

[20] = system: redroot pigweed (Amaranthus retroflexus, AMARE); experiment: as above; settings: 14 days after application; for phytotoxicity rating AMARE: scale 0-100
Procedure, shortened: as §1

[21] = system: ivyleaf morningglory (Ipomoea hederacea, IPOHE); experiment: as above; settings: 14 days after application; for phytotoxicity rating IPOHE: scale 0-100
Procedure, shortened: as §1

[22] = system: velvetleaf (Abutilon theophrasti, ABUTH); experiment: as above; settings: 14 days after application; for phytotoxicity rating ABUTH: scale 0-100
Procedure, shortened: as §1

[23] = system: Johnsongrass (Sorghum halepense, SORHA); experiment: as above; settings: 14 days after application; for phytotoxicity rating SORHA: scale 0-100
Procedure, shortened: as §1

[24] = system: common ragweed (Ambrosia artemisiifolia L., AMBEL); experiment: as above; settings: 14 days after application; for phytotoxicity rating AMBEL: scale 0-100
Procedure, shortened: as §1

[25] = system: soybean (Glycine max L., var. Pella 86, SOY); experiment: Post-emerge greenhouse test, crop damage rating; parameters: key to crop damage rating SOY: 0-100 scale: 0 = no damage, 100 = complete death of all plants; settings: 14 days after application; for crop damage rating SOY: scale 0-100
Procedure, shortened: as §1

[26] = system: soybean (Glycine max L., var. Pella 86, SOY); experiment: Pre-emerge greenhouse test, crop damage rating; parameters: key to SOY crop damage rating: 0 = no damage, 100 = complete death of all plants; settings: 14 days after application, rating scale 0-100
Procedure, shortened: as §2

SMILES: CCN1CC(=O)N(c2cc(Oc3ncccn3)c(Cl)cc2F)C1=O [Compound 8-2]
- RICE crop damage rating (0-100) ([1]; 63 g al/ha): 0
- RICE crop damage rating (0-100) ([1]; 500 g al/ha): 70
- CORN crop damage rating (0-100) ([2]; 63 g al/ha): 5
- CORN crop damage rating (0-100) ([2]; 500 g al/ha): 15
- crop damage rating RICE ([3]; 125 g ai/ha): 40
- crop damage rating RICE ([3]; 500 g ai/ha): 90
- crop damage rating CORN ([4]; 125 g ai/ha): 0
- crop damage rating CORN ([4]; 500 g ai/ha): 50
- phytotoxicity rating CHEAL ([5]; 125 g ai/ha): 100
- phytotoxicity rating CHEAL ([5]; 500 g ai/ha): 100
- phytotoxicity rating AMBEL ([6]; 125 g ai/ha): 95
- phytotoxicity rating AMBEL ([6]; 500 g ai/ha): 100
- phytotoxicity rating ECHCG ([7]; 125 g ai/ha): 10
- phytotoxicity rating ECHCG ([7]; 500 g ai/ha): 100
- phytotoxicity rating CASOB ([8]; 125 g ai/ha): 0
- phytotoxicity rating CASOB ([8]; 500 g ai/ha): 80
- phytotoxicity rating SETVI ([9]; 125 g ai/ha): 95
- phytotoxicity rating SETVI ([9]; 500 g ai/ha): 100
- phytotoxicity rating DIGSA ([10]; 125 g ai/ha): 90
- phytotoxicity rating DIGSA ([10]; 500 g ai/ha): 100
- phytotoxicity rating AMARE ([11]; 125 g ai/ha): 100
- phytotoxicity rating AMARE ([11]; 500 g ai/ha): 100
- phytotoxicity rating IPOHE ([12]; 125 g ai/ha): 100
- phytotoxicity rating IPOHE ([12]; 500 g ai/ha): 100
- phytotoxicity rating ABUTH ([13]; 125 g ai/ha): 100
- phytotoxicity rating ABUTH ([13]; 500 g ai/ha): 100
- phytotoxicity rating SORHA ([14]; 125 g ai/ha): 20
- phytotoxicity rating SORHA ([14]; 500 g ai/ha): 100
- CHEAL phytotoxicity rating (0-100) ([15]; 63 g al/ha): 80
- CHEAL phytotoxicity rating (0-100) ([15]; 500 g al/ha): 100
- ECHCG phytotoxicity rating (0-100) ([16]; 63 g al/ha): 10
- ECHCG phytotoxicity rating (0-100) ([16]; 500 g al/ha): 50
- CASOB phytotoxicity rating (0-100) ([17]; 63 g al/ha): 20
- CASOB phytotoxicity rating (0-100) ([17]; 500 g al/ha): 50
- SETVI phytotoxicity rating (0-100) ([18]; 63 g al/ha): 10
- SETVI phytotoxicity rating (0-100) ([18]; 500 g al/ha): 30
- DIGSA phytotoxicity rating (0-100) ([19]; 63 g al/ha): 0
- DIGSA phytotoxicity rating (0-100) ([19]; 500 g al/ha): 20
- AMARE phytotoxicity rating (0-100) ([20]; 63 g al/ha): 60
- AMARE phytotoxicity rating (0-100) ([20]; 500 g al/ha): 100
- IPOHE phytotoxicity rating (0-100) ([21]; 63 g al/ha): 70
- IPOHE phytotoxicity rating (0-100) ([21]; 500 g al/ha): 100
- ABUTH phytotoxicity rating (0-100) ([22]; 63 g al/ha): 60
- ABUTH phytotoxicity rating (0-100) ([22]; 500 g al/ha): 100
- SORHA phytotoxicity rating (0-100) ([23]; 63 g al/ha): 0
- SORHA phytotoxicity rating (0-100) ([23]; 500 g al/ha): 20
- AMBEL phytotoxicity rating (0-100) ([24]; 63 g al/ha): 30
- AMBEL phytotoxicity rating (0-100) ([24]; 500 g al/ha): 95
- SOY crop damage rating (0-100) ([25]; 63 g al/ha): 10
- SOY crop damage rating (0-100) ([25]; 500 g al/ha): 90
- crop damage rating SOY ([26]; 125 g ai/ha): 0
- crop damage rating SOY ([26]; 500 g ai/ha): 20

SMILES: Nc1cccnc1Oc1cc(-n2c(=O)n3n(c2=S)CCCC3)c(F)cc1Cl [Compound 8-42]
- crop damage rating RICE ([1]; rate 63 g ai/ha): 0
- crop damage rating RICE ([1]; rate 250 g ai/ha): 0
- crop damage rating CORN ([2]; rate 63 g ai/ha): 0
- crop damage rating CORN ([2]; rate 250 g ai/ha): 0
- RICE crop damage rating ([3]; Rate 125 g al/ha): 0
- RICE crop damage rating ([3]; Rate 250 g al/ha): 0
- CORN crop damage rating ([4]; Rate 125 g al/ha): 0
- CORN crop damage rating ([4]; Rate 250 g al/ha): 0
- CHEAL phytotoxicity rating ([5]; Rate 125 g al/ha): 80
- CHEAL phytotoxicity rating ([5]; Rate 250 g al/ha): 100
- AMBEL phytotoxicity rating ([6]; Rate 125 g al/ha): 0
- AMBEL phytotoxicity rating ([6]; Rate 250 g al/ha): 30
- ECHCG phytotoxicity rating ([7]; Rate 125 g al/ha): 0
- ECHCG phytotoxicity rating ([7]; Rate 250 g al/ha): 0
- CASOB phytotoxicity rating ([8]; Rate 125 g al/ha): 100
- CASOB phytotoxicity rating ([8]; Rate 250 g al/ha): 80
- SETVI phytotoxicity rating ([9]; Rate 125 g al/ha): 0
- SETVI phytotoxicity rating ([9]; Rate 250 g al/ha): 0
- DIGSA phytotoxicity rating ([10]; Rate 125 g al/ha): 0
- DIGSA phytotoxicity rating ([10]; Rate 250 g al/ha): 0
- AMARE phytotoxicity rating ([11]; Rate 125 g al/ha): 100
- AMARE phytotoxicity rating ([11]; Rate 250 g al/ha): 100
- IPOHE phytotoxicity rating ([12]; Rate 125 g al/ha): 30
- IPOHE phytotoxicity rating ([12]; Rate 250 g al/ha): 50
- ABUTH phytotoxicity rating ([13]; Rate 125 g al/ha): 100
- ABUTH phytotoxicity rating ([13]; Rate 250 g al/ha): 100
- SORHA phytotoxicity rating ([14]; Rate 125 g al/ha): 0
- SORHA phytotoxicity rating ([14]; Rate 250 g al/ha): 0i
- phytotoxicity rating CHEAL ([15]; rate 63 g ai/ha): 50
- phytotoxicity rating CHEAL ([15]; rate 250 g ai/ha): 80
- phytotoxicity rating ECHCG ([16]; rate 63 g ai/ha): 0
- phytotoxicity rating ECHCG ([16]; rate 250 g ai/ha): 0
- phytotoxicity rating CASOB ([17]; rate 63 g ai/ha): 0
- phytotoxicity rating CASOB ([17]; rate 250 g ai/ha): 0
- phytotoxicity rating SETVI ([18]; rate 63 g ai/ha): 0
- phytotoxicity rating SETVI ([18]; rate 250 g ai/ha): 0
- phytotoxicity rating DIGSA ([19]; rate 63 g ai/ha): 0
- phytotoxicity rating DIGSA ([19]; rate 250 g ai/ha): 0
- phytotoxicity rating AMARE ([20]; rate 63 g ai/ha): 50
- phytotoxicity rating AMARE ([20]; rate 250 g ai/ha): 95
- phytotoxicity rating IPOHE ([21]; rate 63 g ai/ha): 60
- phytotoxicity rating IPOHE ([21]; rate 250 g ai/ha): 70
- phytotoxicity rating ABUTH ([22]; rate 63 g ai/ha): 100
- phytotoxicity rating ABUTH ([22]; rate 250 g ai/ha): 100
- phytotoxicity rating SORHA ([23]; rate 63 g ai/ha): 0
- phytotoxicity rating SORHA ([23]; rate 250 g ai/ha): 0
- phytotoxicity rating AMBEL ([24]; rate 63 g ai/ha): 40
- phytotoxicity rating AMBEL ([24]; rate 250 g ai/ha): 90
- crop damage rating SOY ([25]; rate 63 g ai/ha): 20
- crop damage rating SOY ([25]; rate 250 g ai/ha): 60
- SOY crop damage rating ([26]; Rate 125 g al/ha): 0
- SOY crop damage rating ([26]; Rate 250 g al/ha): 20
